Data published in patent publication US11932624B2, “MDM2 degraders and uses thereof” (Kymera Therapeutics, Inc., priority 2020, dated 2024).
pIC50: −log10 of the molar value.

Tested on: RS411 cells
Experiment: Cell Viability CTG Assay (CellTiter Glo) in RS411 cells
Type: cell-based
Conditions: Homo sapiens
Protocol: Example 23. Cell Viability CTG Assay
Day 0: Compounds or DMSO 60 nL were stamped to the cell plate as the platemap. RS411 cells were centrifuged at 800 rpm for 5 min, suspended with culture medium, and counted with Countess (Invitrogen). The cell density was adjusted to the recommend information. 30 μL of cell solution (1000 cells/well) was added to the assay plate as the platemap and 30 uL of media was added to column 2 and column 23 as the platemap. The plate was spun down briefly. The final concentration of the compounds started at 10 μM (3 fold dilution and 11 doses) and final DMSO concentration was 0.2%. The plate was spun down briefly and incubated at 37° C., 5% CO2 for 1-4 days.
30 μL CellTiter Glo reagent was added to each well and the plate was centrifuged at 1000 rpm for 30 sec. The plate was shaken for 1 min and centrifuged at 1000 rpm for 30 sec. The plate was incubated at RT for 10 min to stabilize the luminescent signal and the luminescence was read by EnVision.
The letter codes for IC50 indicate the concentration of compound required to affect 50% of cells: A (<0.05 μM), B (0.05-0.1 μM), C (0.1-0.5 μM), D (0.5-1.0 μM), and E (>1.0 μM).

SMILES | pIC50 (RS4-11, 96 h, duration 4 days) | also measured
CC(C)[C@@H](CS(=O)(=O)C(C)C)N1C(=O)[C@@](C)(CC(=O)Nc2ccc(C(=O)NCCCOCCCN)cc2)C[C@H](c2cccc(Cl)c2)[C@H]1c1ccc(Cl)cc1 [I-5, N-[3-(3-aminopropoxy)propyl]-4-[[2-[(3R,5R,6S)-5-(3-chlorophenyl)-6-(4-chlorophenyl)-1-[(1S)-1-(isopropylsulfonylmethyl)-2-methyl-propyl]-3-methyl-2-oxo-3-piperidyl]acetyl]amino]benzamide] | < 6.00 | 
COc1cc(C(=O)NCCCOCCCN)ccc1NC(=O)[C@@H]1N[C@@H](CC(C)(C)C)[C@](C#N)(c2ccc(Cl)cc2F)[C@H]1c1cccc(Cl)c1F [I-7] | < 6.00 | 
CC(C)[C@@H](CS(=O)(=O)C(C)C)N1C(=O)[C@@](C)(CC(=O)Nc2ccc(C(=O)NCCCCCCCNC(=O)c3ccc(NC(=O)C[C@@]4(C)C[C@H](c5cccc(Cl)c5)[C@@H](c5ccc(Cl)cc5)N([C@H](CS(=O)(=O)C(C)C)C(C)C)C4=O)cc3)cc2)C[C@H](c2cccc(Cl)c2)[C@H]1c1ccc(Cl)cc1 [I-8, 4-[2-[(3R,5R,6S)-5-(3-chlorophenyl)-6-(4-chlorophenyl)-3-methyl-1-[(2S)-3-methyl-1-(propane-2-sulfonyl)butan-2-yl]-2-oxopiperidin-3-yl]acetamido]-N-[7-[(4-[2-[(3R,5R,6S)-5-(3-chlorophenyl)-6-(4-chlorophenyl)-3-methyl-1-[(2S)-3-methyl-1-(propane-2-sulfonyl)butan-2-yl]-2-oxopiperidin-3-yl]acetamido]phenyl)formamido]heptyl]benzamide] | < 6.00 | 
Cc1ncsc1-c1ccc(CNC(=O)[C@@H]2C[C@@H](O)CN2C(=O)[C@@H](NC(=O)CCCCCCCNC(=O)C[C@@]2(C)C[C@H](c3cccc(Cl)c3)[C@@H](c3ccc(Cl)cc3)N([C@H](CS(=O)(=O)C(C)C)C(C)C)C2=O)C(C)(C)C)cc1 [I-10] | 6.30 to 7.00 | 
Cc1ncsc1-c1ccc(CNC(=O)[C@@H]2C[C@@H](O)CN2C(=O)[C@@H](NC(=O)CCCNC(=O)C[C@@]2(C)C[C@H](c3cccc(Cl)c3)[C@@H](c3ccc(Cl)cc3)N([C@H](CS(=O)(=O)C(C)C)C(C)C)C2=O)C(C)(C)C)cc1 [I-11] | < 6.00 | 
Cc1ncsc1-c1ccc(CNC(=O)[C@@H]2C[C@@H](O)CN2C(=O)[C@@H](NC(=O)CCCCCCCNC(=O)c2ccc(NC(=O)[C@@H]3NC4(CCCCC4)[C@@]4(C(=O)Nc5cc(Cl)ccc54)[C@H]3c3cccc(Cl)c3F)cc2)C(C)(C)C)cc1 [I-12] | 7.00 to 7.30 | 
Cc1ncsc1-c1ccc(CNC(=O)[C@@H]2C[C@@H](O)CN2C(=O)[C@@H](NC(=O)CCCNC(=O)c2ccc(NC(=O)[C@@H]3NC4(CCCCC4)[C@@]4(C(=O)Nc5cc(Cl)ccc54)[C@H]3c3cccc(Cl)c3F)cc2)C(C)(C)C)cc1 [I-13] | 6.00 to 6.30 | 
COc1cc(C(=O)NCCCCCCCC(=O)N[C@H](C(=O)N2C[C@H](O)C[C@H]2C(=O)NCc2ccc(-c3scnc3C)cc2)C(C)(C)C)ccc1NC(=O)[C@@H]1N[C@@H](CC(C)(C)C)[C@](C#N)(c2ccc(Cl)cc2F)[C@H]1c1cccc(Cl)c1F [I-19] | > 7.30 | 
COc1cc(C(=O)NCCCC(=O)N[C@H](C(=O)N2C[C@H](O)C[C@H]2C(=O)NCc2ccc(-c3scnc3C)cc2)C(C)(C)C)ccc1NC(=O)[C@@H]1N[C@@H](CC(C)(C)C)[C@](C#N)(c2ccc(Cl)cc2F)[C@H]1c1cccc(Cl)c1F [I-20] | 6.30 to 7.00 | 
CC(C)[C@@H](CS(=O)(=O)C(C)C)N1C(=O)[C@@](C)(CC(=O)NCCCCCCCCc2ccc3c(c2)n(C)c(=O)n3C2CCC(=O)NC2=O)C[C@H](c2cccc(Cl)c2)[C@H]1c1ccc(Cl)cc1 (some centres unmarked) [I-21] | 7.00 to 7.30 | 
CC(C)[C@@H](CS(=O)(=O)C(C)C)N1C(=O)[C@@](C)(CC(=O)NCCCCCCCCCCCNC(=O)C[C@@]2(C)C[C@H](c3cccc(Cl)c3)[C@@H](c3ccc(Cl)cc3)N([C@H](CS(=O)(=O)C(C)C)C(C)C)C2=O)C[C@H](c2cccc(Cl)c2)[C@H]1c1ccc(Cl)cc1 [I-23] | < 6.00 | 
CC(C)[C@@H](CS(=O)(=O)C(C)C)N1C(=O)[C@@](C)(CC(=O)NCCCCCCC#Cc2cccc3c2CN(C2CCC(=O)NC2=O)C3=O)C[C@H](c2cccc(Cl)c2)[C@H]1c1ccc(Cl)cc1 (some centres unmarked) [I-26] | 7.00 to 7.30 | 
CC(C)[C@@H](CS(=O)(=O)C(C)C)N1C(=O)[C@@](C)(CC(=O)Nc2ccc(C(=O)NCCCC#Cc3cccc4c3CN(C3CCC(=O)NC3=O)C4=O)cc2)C[C@H](c2cccc(Cl)c2)[C@H]1c1ccc(Cl)cc1 (some centres unmarked) [I-27] |  | pIC50 (RS4-11, 72 h, duration 3 days): 6.30 to 7.00
COc1cc(C(=O)NCCCCCc2cccc3c2n(C)c(=O)n3C2CCC(=O)NC2=O)ccc1NC(=O)[C@@H]1N[C@@H](CC(C)(C)C)[C@](C#N)(c2ccc(Cl)cc2F)[C@H]1c1cccc(Cl)c1F (some centres unmarked) [I-28] |  | pIC50 (RS4-11, 72 h, duration 3 days): > 7.30
COc1cc(C(=O)NCCCCCCCCNC(=O)c2ccc(NC(=O)[C@@H]3N[C@@H](CC(C)(C)C)[C@](C#N)(c4ccc(Cl)cc4F)[C@H]3c3cccc(Cl)c3F)c(OC)c2)ccc1NC(=O)[C@@H]1N[C@@H](CC(C)(C)C)[C@](C#N)(c2ccc(Cl)cc2F)[C@H]1c1cccc(Cl)c1F [I-32] | 6.30 to 7.00 | 
COc1cc(C(=O)NCCOCCOCCNC(=O)c2ccc(NC(=O)[C@@H]3N[C@@H](CC(C)(C)C)[C@](C#N)(c4ccc(Cl)cc4F)[C@H]3c3cccc(Cl)c3F)c(OC)c2)ccc1NC(=O)[C@@H]1N[C@@H](CC(C)(C)C)[C@](C#N)(c2ccc(Cl)cc2F)[C@H]1c1cccc(Cl)c1F [I-33] | < 6.00 | 
CCN1[C@@H](C(=O)NC23CCC(C(=O)NCCCCCc4ccc5c(c4)n(C)c(=O)n5C4CCC(=O)NC4=O)(CC2)CC3)[C@H](c2cccc(Cl)c2F)[C@]2(C(=O)Nc3cc(Cl)ccc32)C12CCCCC2 (some centres unmarked) [I-42] |  | pIC50 (RS4-11, 24 h, duration 1 day): > 7.30
Cn1c(=O)n(C2CCC(=O)NC2=O)c2cccc(C#CCOC3CCN(C(=O)c4ccc(NC(=O)[C@@H]5NC6(CCCCC6)[C@@]6(C(=O)Nc7cc(Cl)ccc76)[C@H]5c5cccc(Cl)c5F)cc4)CC3)c21 (stereo partly drawn) [I-43, (3′R,4'S,5′R)-6″-chloro-4′-(3-chloro-2-fluorophenyl)-N-(4-(4-((3-(1-(2,6-dioxopiperidin-3-yl)-3-methyl-2-oxo-2,3-dihydro-1H-benzo[d]imidazol-4-yl)prop-2-yn-1-yl)oxy)piperidine-1-carbonyl)phenyl)-2″-oxodispiro[cyclohexane-1,2′-pyrrolidine-3′,3″-indoline]-5′-carboxamide] |  | pIC50 (RS4-11, 24 h, duration 1 day): > 7.30
Cn1c(=O)n(C2CCC(=O)NC2=O)c2cccc(OC3CC4(CCN(C(=O)c5ccc(NC(=O)[C@@H]6NC7(CCCCC7)[C@@]7(C(=O)Nc8cc(Cl)ccc87)[C@H]6c6cccc(Cl)c6F)cc5)CC4)C3)c21 (some centres unmarked) [I-44] |  | pIC50 (RS4-11, 24 h, duration 1 day): > 7.30
CN(C(=O)c1ccc(NC(=O)[C@@H]2NC3(CCCCC3)[C@@]3(C(=O)Nc4cc(Cl)ccc43)[C@H]2c2cccc(Cl)c2F)cc1)C1CCC2(CC1)CC(Cc1cccc3c1n(C)c(=O)n3C1CCC(=O)NC1=O)C2 (some centres unmarked) [I-45] |  | pIC50 (RS4-11, 24 h, duration 1 day): 6.30 to 7.00

Continued, in another order:

pIC50 (RS4-11, 96 h, duration 4 days) | SMILES | also measured
7.00 to 7.30 | CCOc1cc(C(C)(C)C)ccc1C1=N[C@@H](c2ccc(Cl)cc2)[C@@H](c2ccc(Cl)cc2)N1C(=O)N1CCN(CC#Cc2cccc3c2CN(C2CCC(=O)NC2=O)C3=O)CC1 (stereo partly drawn) [I-4, 3-[4-[3-[4-[(4S,5R)-2-(4-tert-butyl-2-ethoxy-phenyl)-4,5-bis(4-chlorophenyl)-4,5-dihydroimidazole-1-carbonyl]piperazin-1-yl]prop-1-ynyl]-1-oxo-isoindolin-2-yl]piperidine-2,6-dione] | 
6.30 to 7.00 | CC(C)[C@@H](CS(=O)(=O)C(C)C)N1C(=O)[C@@](C)(CC(=O)Nc2ccc(C(=O)NCCOCCOCCOCCNc3cccc4c3C(=O)N(C3CCC(=O)NC3=O)C4=O)cc2)C[C@H](c2cccc(Cl)c2)[C@H]1c1ccc(Cl)cc1 (stereo partly drawn) [I-6, 4-[[2-[(3R,5R,6S)-5-(3-chlorophenyl)-6-(4-chlorophenyl)-1-[(1S)-1-(isopropylsulfonylmethyl)-2-methyl-propyl]-3-methyl-2-oxo-3-piperidyl]acetyl]amino]-N-[2-[2-[2-[2-[[2-(2,6-dioxo-3-piperidyl)-1,3-dioxo-isoindolin-4-yl]amino]ethoxy]ethoxy]ethoxy]ethyl]benzamide] | 
> 7.30 | Cn1c(=O)n(C2CCC(=O)NC2=O)c2ccc(CCCCCNC(=O)c3ccc(NC(=O)[C@@H]4NC5(CCCCC5)[C@@]5(C(=O)Nc6cc(Cl)ccc65)[C@H]4c4cccc(Cl)c4F)cc3)cc21 (some centres unmarked) [I-9] | 
> 7.30 | CC(C)[C@@H](CS(=O)(=O)C(C)C)N1C(=O)[C@@](C)(CC(=O)Nc2ccc(C(=O)NCCCCCc3ccc4c(c3)n(C)c(=O)n4C3CCC(=O)NC3=O)cc2)C[C@H](c2cccc(Cl)c2)[C@H]1c1ccc(Cl)cc1 (some centres unmarked) [I-14] | 
> 7.30 | COc1cc(C(=O)NCCCCCc2ccc3c(c2)n(C)c(=O)n3C2CCC(=O)NC2=O)ccc1NC(=O)[C@@H]1N[C@@H](CC(C)(C)C)[C@](C#N)(c2ccc(Cl)cc2F)[C@H]1c1cccc(Cl)c1F (some centres unmarked) [I-16] | 
> 7.30 | COc1cc(C(=O)NCCCC#Cc2ccc3c(c2)n(C)c(=O)n3C2CCC(=O)NC2=O)ccc1NC(=O)[C@@H]1N[C@@H](CC(C)(C)C)[C@](C#N)(c2ccc(Cl)cc2F)[C@H]1c1cccc(Cl)c1F (some centres unmarked) [I-17] | 
> 7.30 | O=C1CCC(N2Cc3c(C#CCCCNC(=O)c4ccc(NC(=O)[C@@H]5NC6(CCCCC6)[C@@]6(C(=O)Nc7cc(Cl)ccc76)[C@H]5c5cccc(Cl)c5F)cc4)cccc3C2=O)C(=O)N1 (some centres unmarked) [I-29] | 
> 7.30 | COc1cc(C(=O)NCCCC#Cc2cccc3c2n(C)c(=O)n3C2CCC(=O)NC2=O)ccc1NC(=O)[C@@H]1N[C@@H](CC(C)(C)C)[C@](C#N)(c2ccc(Cl)cc2F)[C@H]1c1cccc(Cl)c1F (some centres unmarked) [I-30] | 
> 7.30 | COc1cc(C(=O)NCCCC#Cc2cccc3c2CN(C2CCC(=O)NC2=O)C3=O)ccc1NC(=O)[C@@H]1N[C@@H](CC(C)(C)C)[C@](C#N)(c2ccc(Cl)cc2F)[C@H]1c1cccc(Cl)c1F (some centres unmarked) [I-31] | 
